From PubChem BioAssay AID2060511 (Molecular Pharmacology Branch, DTP, NCI, 2025)

Tested on: 422866-222-R5-J1-PDC spheroids with HUVEC/MSC, viability
Assay: Anticancer human tumor 422866-222-R5-J1-PDC patient-derived pancreatic adenocarcinoma cell line growth inhibition [GQUAD]
Settings: for IC50: curve of first compound; for viability, T/C: stronger effect = lower value
Procedure, shortened: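 Viability of tumor cells grown as complex spheroids with endothelial and stromal cells, exposed to drug combinations. Top concentration at or near clinical Cmax (else 10 microM), diluted in half-log increments.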

[1] = second compound 0.0316 µM, first compound 0.0316 µM
[2] = second compound 0.0316 µM, first compound 0.316 µM
[3] = second compound 0.1 µM, first compound 0.0316 µM
[4] = second compound 0.1 µM, first compound 0.316 µM
[5] = second compound 0.316 µM, first compound 0.0316 µM
[6] = second compound 0.316 µM, first compound 0.316 µM
[7] = second compound 1 µM, first compound 0.0316 µM
[8] = second compound 1 µM, first compound 0.316 µM
[9] = second compound 3.16 µM, first compound 0.0316 µM
[10] = second compound 3.16 µM, first compound 0.316 µM
[11] = second compound 10 µM, first compound 0.0316 µM
[12] = second compound 10 µM, first compound 0.316 µM
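Further: spheroids exposed to compounds for seven days before reading.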
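Wherever viability, T/C is given: percent viability relative to DMSO vehicle control taken as 100%.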

Structure (SMILES): Cc1[nH]c2ccccc2c1CCNCc1ccc(/C=C/C(=O)NO)cc1 + Cc1cnc(CNC(=O)c2c(=O)c3ccc(N4CCCN(C)CC4)nc3n3c2sc2ccccc23)cn1
- IC50 (second compound 0.0316 µM): > 316 nM
- IC50 (second compound 0.1 µM): 277 nM
- IC50 (second compound 0.316 µM): > 316 nM
- IC50 (second compound 1 µM): > 316 nM
- IC50 (second compound 3.16 µM): 269 nM
- IC50 (second compound 10 µM): 227 nM
- viability, T/C (second compound 0.0316 µM, first compound 0.000999 µM): 99.8%
- viability, T/C (second compound 0.0316 µM, first compound 0.00316 µM): 94.7%
- viability, T/C (second compound 0.0316 µM, first compound 0.00999 µM): 83.5%
- viability, T/C [1]: 65.8%
- viability, T/C (second compound 0.0316 µM, first compound 0.0999 µM): 77.8%
- viability, T/C [2]: 46.8%
- viability, T/C (second compound 0.1 µM, first compound 0.000999 µM): 91.6%
- viability, T/C (second compound 0.1 µM, first compound 0.00316 µM): 86.7%
- viability, T/C (second compound 0.1 µM, first compound 0.00999 µM): 83.4%
- viability, T/C [3]: 66.6%
- viability, T/C (second compound 0.1 µM, first compound 0.0999 µM): 68%
- viability, T/C [4]: 46.6%
- viability, T/C (second compound 0.316 µM, first compound 0.000999 µM): 79.5%
- viability, T/C (second compound 0.316 µM, first compound 0.00316 µM): 73.9%
- viability, T/C (second compound 0.316 µM, first compound 0.00999 µM): 80.3%
- viability, T/C [5]: 78.8%
- viability, T/C (second compound 0.316 µM, first compound 0.0999 µM): 67.4%
- viability, T/C [6]: 55.9%
- viability, T/C (second compound 1 µM, first compound 0.000999 µM): 75.2%
- viability, T/C (second compound 1 µM, first compound 0.00316 µM): 72.6%
- viability, T/C (second compound 1 µM, first compound 0.00999 µM): 74.3%
- viability, T/C [7]: 62.6%
- viability, T/C (second compound 1 µM, first compound 0.0999 µM): 70.4%
- viability, T/C [8]: 63.7%
- viability, T/C (second compound 3.16 µM, first compound 0.000999 µM): 73.8%
- viability, T/C (second compound 3.16 µM, first compound 0.00316 µM): 78.6%
- viability, T/C (second compound 3.16 µM, first compound 0.00999 µM): 87.4%
- viability, T/C [9]: 78.8%
- viability, T/C (second compound 3.16 µM, first compound 0.0999 µM): 76.1%
- viability, T/C [10]: 45.8%
- viability, T/C (second compound 10 µM, first compound 0.000999 µM): 75.2%
- viability, T/C (second compound 10 µM, first compound 0.00316 µM): 67.8%
- viability, T/C (second compound 10 µM, first compound 0.00999 µM): 68.7%
- viability, T/C [11]: 84.5%
- viability, T/C (second compound 10 µM, first compound 0.0999 µM): 70.3%
- viability, T/C [12]: 41.4%

Structure (SMILES): O=C(NO)c1cnc(N2CCN(S(=O)(=O)c3ccc4ccccc4c3)CC2)nc1 + Cc1cnc(CNC(=O)c2c(=O)c3ccc(N4CCCN(C)CC4)nc3n3c2sc2ccccc23)cn1
- IC50 (second compound 0.0316 µM): 824 nM
- IC50 (second compound 0.1 µM): 1640 nM
- IC50 (second compound 0.316 µM): 1650 nM
- IC50 (second compound 1 µM): 1730 nM
- IC50 (second compound 3.16 µM): 1460 nM
- IC50 (second compound 10 µM): 574 nM
- viability, T/C [1]: 89.8%
- viability, T/C (second compound 0.0316 µM, first compound 0.1 µM): 75.8%
- viability, T/C [2]: 60.2%
- viability, T/C (second compound 0.0316 µM, first compound 1 µM): 43%
- viability, T/C (second compound 0.0316 µM, first compound 3.16 µM): 42%
- viability, T/C (second compound 0.0316 µM, first compound 10 µM): 2.99%
- viability, T/C [3]: 86.4%
- viability, T/C (second compound 0.1 µM, first compound 0.1 µM): 75.1%
- viability, T/C [4]: 93.6%
- viability, T/C (second compound 0.1 µM, first compound 1 µM): 49.1%
- viability, T/C (second compound 0.1 µM, first compound 3.16 µM): 40.2%
- viability, T/C (second compound 0.1 µM, first compound 10 µM): 5.96%
- viability, T/C [5]: 90.9%
- viability, T/C (second compound 0.316 µM, first compound 0.1 µM): 84%
- viability, T/C [6]: 85.9%
- viability, T/C (second compound 0.316 µM, first compound 1 µM): 52.7%
- viability, T/C (second compound 0.316 µM, first compound 3.16 µM): 39.9%
- viability, T/C (second compound 0.316 µM, first compound 10 µM): 6.44%
- viability, T/C [7]: 71.9%
- viability, T/C (second compound 1 µM, first compound 0.1 µM): 86.8%
- viability, T/C [8]: 82.2%
- viability, T/C (second compound 1 µM, first compound 1 µM): 63.1%
- viability, T/C (second compound 1 µM, first compound 3.16 µM): 33.5%
- viability, T/C (second compound 1 µM, first compound 10 µM): 4.12%
- viability, T/C [9]: 70.5%
- viability, T/C (second compound 3.16 µM, first compound 0.1 µM): 91.8%
- viability, T/C [10]: 63.5%
- viability, T/C (second compound 3.16 µM, first compound 1 µM): 56.9%
- viability, T/C (second compound 3.16 µM, first compound 3.16 µM): 35.7%
- viability, T/C (second compound 3.16 µM, first compound 10 µM): 0.26%
- viability, T/C [11]: 72.3%
- viability, T/C (second compound 10 µM, first compound 0.1 µM): 74.6%
- viability, T/C [12]: 65.1%
- viability, T/C (second compound 10 µM, first compound 1 µM): 33.4%
- viability, T/C (second compound 10 µM, first compound 3.16 µM): 21%
- viability, T/C (second compound 10 µM, first compound 10 µM): 0.26%
